In ChEMBL document CHEMBL1132539 (J Med Chem, 1999) one finds Ki data, which are given here for 29 compounds.

Assay [1] concerns the target Glutamyl aminopeptidase (Homo sapiens, UniProt Q07075). Nature of the assay: Binding affinity against recombinant Aminopeptidase A.
Assay [2] concerns the target T1, Aminopeptidase N (Sus scrofa, UniProt P15145).
T1 sequence (P15145 whole entry): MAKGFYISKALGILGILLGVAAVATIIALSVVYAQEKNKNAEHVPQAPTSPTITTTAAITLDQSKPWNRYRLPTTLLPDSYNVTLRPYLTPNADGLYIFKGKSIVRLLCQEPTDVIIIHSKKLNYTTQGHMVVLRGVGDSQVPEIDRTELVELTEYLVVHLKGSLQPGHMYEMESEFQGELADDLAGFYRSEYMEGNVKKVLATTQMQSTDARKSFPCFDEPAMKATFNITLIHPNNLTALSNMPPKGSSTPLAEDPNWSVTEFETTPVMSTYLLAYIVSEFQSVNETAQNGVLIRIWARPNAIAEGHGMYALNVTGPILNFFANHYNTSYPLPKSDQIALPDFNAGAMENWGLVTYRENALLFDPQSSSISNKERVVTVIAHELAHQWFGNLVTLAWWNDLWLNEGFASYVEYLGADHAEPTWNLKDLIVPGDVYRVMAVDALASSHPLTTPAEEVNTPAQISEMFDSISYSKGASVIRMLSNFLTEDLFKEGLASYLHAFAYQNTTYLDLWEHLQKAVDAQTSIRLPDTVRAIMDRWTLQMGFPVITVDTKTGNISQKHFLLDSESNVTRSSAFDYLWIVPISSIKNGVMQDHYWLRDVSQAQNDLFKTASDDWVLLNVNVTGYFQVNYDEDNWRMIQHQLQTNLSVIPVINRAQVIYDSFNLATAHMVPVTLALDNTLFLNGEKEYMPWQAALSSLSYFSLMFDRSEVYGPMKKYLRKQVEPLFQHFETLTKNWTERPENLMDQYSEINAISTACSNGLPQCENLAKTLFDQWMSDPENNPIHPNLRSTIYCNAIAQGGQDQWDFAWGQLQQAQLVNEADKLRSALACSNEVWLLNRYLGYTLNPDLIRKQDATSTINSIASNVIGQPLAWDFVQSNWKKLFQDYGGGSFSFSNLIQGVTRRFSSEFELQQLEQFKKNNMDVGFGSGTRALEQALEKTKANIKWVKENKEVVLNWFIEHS
Description: Binding affinity against aminopeptidase N from pig kidney

Assay [3] has as its target T2, Angiotensin-converting enzyme (Rattus norvegicus, UniProt P47820).
T2 sequence (P47820 whole entry): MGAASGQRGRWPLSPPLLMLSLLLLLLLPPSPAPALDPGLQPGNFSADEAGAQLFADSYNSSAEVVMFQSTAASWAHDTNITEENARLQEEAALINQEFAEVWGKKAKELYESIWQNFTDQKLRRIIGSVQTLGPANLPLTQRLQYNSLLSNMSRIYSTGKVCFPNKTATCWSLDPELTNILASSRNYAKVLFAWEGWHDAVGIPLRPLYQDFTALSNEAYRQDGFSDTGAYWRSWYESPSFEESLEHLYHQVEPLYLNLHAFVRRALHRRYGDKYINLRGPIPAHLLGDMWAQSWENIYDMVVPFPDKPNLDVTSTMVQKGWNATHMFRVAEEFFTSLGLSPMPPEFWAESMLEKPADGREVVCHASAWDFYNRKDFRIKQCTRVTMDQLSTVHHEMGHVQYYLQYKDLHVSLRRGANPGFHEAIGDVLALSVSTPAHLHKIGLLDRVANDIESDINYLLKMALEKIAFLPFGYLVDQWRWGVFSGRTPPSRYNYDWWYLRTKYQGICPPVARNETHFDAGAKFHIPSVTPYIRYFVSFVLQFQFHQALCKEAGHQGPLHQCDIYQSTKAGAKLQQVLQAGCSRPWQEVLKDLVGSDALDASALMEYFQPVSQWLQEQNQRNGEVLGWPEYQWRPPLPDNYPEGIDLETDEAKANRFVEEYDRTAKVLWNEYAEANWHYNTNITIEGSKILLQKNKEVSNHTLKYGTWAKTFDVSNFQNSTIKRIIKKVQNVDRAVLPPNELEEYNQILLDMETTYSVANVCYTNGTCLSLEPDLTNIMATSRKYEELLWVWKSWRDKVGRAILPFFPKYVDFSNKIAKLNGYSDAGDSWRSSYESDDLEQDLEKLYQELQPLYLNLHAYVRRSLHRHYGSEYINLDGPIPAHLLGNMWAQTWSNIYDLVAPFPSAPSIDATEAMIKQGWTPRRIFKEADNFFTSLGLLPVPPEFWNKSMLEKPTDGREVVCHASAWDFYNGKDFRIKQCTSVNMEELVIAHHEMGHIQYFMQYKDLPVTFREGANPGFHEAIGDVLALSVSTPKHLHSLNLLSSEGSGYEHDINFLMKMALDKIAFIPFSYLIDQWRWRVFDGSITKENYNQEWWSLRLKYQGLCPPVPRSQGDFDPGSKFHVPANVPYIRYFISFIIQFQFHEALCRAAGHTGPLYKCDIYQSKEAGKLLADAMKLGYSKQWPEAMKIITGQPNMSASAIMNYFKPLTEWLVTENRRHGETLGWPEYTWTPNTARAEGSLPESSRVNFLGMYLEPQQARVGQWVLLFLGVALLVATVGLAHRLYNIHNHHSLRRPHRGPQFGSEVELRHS
Briefly: Binding affinity against Angiotensin I converting enzyme from rat testis.

The target of assay [4] is T3, Neprilysin (Oryctolagus cuniculus, UniProt P08049).
T3 sequence (P08049 whole entry): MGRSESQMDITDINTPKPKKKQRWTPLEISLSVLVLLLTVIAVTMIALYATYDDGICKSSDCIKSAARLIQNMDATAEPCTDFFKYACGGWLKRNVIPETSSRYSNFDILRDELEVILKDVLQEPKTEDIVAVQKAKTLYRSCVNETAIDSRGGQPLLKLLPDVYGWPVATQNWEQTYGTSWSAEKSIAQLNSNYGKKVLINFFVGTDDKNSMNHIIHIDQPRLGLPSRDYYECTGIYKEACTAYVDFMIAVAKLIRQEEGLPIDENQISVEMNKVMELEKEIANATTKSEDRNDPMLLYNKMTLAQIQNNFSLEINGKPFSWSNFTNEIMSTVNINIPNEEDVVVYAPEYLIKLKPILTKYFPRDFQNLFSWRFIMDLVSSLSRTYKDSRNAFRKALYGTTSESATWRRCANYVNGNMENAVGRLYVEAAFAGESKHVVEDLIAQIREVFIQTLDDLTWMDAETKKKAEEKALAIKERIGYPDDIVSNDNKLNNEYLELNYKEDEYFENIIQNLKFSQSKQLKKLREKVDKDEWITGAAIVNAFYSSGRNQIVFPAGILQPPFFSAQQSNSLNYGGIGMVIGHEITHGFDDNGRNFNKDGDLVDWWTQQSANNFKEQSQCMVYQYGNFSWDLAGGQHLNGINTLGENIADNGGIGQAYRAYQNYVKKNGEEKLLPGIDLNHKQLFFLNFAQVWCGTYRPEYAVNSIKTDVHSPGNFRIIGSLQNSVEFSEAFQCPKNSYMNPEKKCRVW
Briefly: Binding affinity against NEP from rabbit kidney(neutral endopeptidase).

The term Ki denotes the dissociation constant of the complex between target and ligand, obtained from inhibition or displacement.

Sequence of Glutamyl aminopeptidase (Q07075 whole entry): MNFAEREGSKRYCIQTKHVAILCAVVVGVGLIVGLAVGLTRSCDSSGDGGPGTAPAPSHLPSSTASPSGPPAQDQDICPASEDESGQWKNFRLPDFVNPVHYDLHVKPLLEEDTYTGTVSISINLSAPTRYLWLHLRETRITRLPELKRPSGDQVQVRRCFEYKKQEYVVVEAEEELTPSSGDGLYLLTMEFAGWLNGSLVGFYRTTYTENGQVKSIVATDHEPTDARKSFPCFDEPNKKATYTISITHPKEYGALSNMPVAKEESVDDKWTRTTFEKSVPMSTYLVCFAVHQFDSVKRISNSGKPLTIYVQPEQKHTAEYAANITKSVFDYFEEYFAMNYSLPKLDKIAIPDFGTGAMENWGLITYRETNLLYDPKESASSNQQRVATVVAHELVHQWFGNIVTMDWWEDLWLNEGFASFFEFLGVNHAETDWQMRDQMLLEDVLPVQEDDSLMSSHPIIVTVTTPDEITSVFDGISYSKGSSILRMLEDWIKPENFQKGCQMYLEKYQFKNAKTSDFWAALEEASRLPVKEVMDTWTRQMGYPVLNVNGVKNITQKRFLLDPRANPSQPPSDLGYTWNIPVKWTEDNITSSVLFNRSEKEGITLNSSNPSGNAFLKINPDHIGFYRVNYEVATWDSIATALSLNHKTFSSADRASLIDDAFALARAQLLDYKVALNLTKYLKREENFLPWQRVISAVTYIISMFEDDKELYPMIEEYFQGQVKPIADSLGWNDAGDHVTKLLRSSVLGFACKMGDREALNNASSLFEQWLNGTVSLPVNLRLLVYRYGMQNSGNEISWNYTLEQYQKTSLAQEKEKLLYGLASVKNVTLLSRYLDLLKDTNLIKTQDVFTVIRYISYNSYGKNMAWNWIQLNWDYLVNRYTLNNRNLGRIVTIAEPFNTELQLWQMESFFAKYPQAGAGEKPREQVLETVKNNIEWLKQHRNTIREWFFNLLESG

Regarding `CC[C@@H](C)[C@H](NCC(S)C(N)CCS(N)(=O)=O)C(=O)N[C@@H](CC(=O)O)C(=O)O` (stereo partly drawn), the Ki in assay [1] amounted to 51 nM; in assay [2], 3400 nM.
Turning to `NC(CCS(N)(=O)=O)C(S)C(=O)N[C@@H](Cc1ccc(O)cc1)C(=O)N[C@@H](CC(=O)O)C(=O)O` (stereo partly drawn), the Ki in assay [1] stood at 150 nM; in assay [2] it was 7000 nM.
In the same order, the values of `CC[C@@H](C)[C@H](NC(=O)C(S)C(N)CCS(N)(=O)=O)C(=O)N[C@@H](CC(=O)O)C(=O)O` (stereo partly drawn) are 80 nM and 28000 nM.
With `CC[C@@H](C)[C@H](NC(=O)[C@H](S)[C@H](N)CCS(=O)(=O)O)C(=O)N1CCC(C(=O)O)[C@H]1C(=O)O` (stereo partly drawn), the Ki in assay [3] came to 259 nM; in assay [4], 219 nM; in assay [1], 0.873 nM.
For `CC[C@@H](C)[C@H](NC(=O)[C@@H](S)[C@H](N)CCS(=O)(=O)O)C(N)=O`, the Ki in assay [1] is 4200 nM; in assay [2] it was more than 10000 nM.
In the same order, the values of `CC[C@@H](C)[C@H](NC(=O)[C@@H](S)[C@@H](N)CCC(=O)O)C(=O)N[C@@H](CC(=O)O)C(=O)O` are 16 nM and 3900 nM.
Turning to `CC[C@@H](C)[C@H](NC(=O)[C@@H](S)[C@H](N)CCS(=O)(=O)O)C(=O)N[C@@H](CC(=O)O)C(N)=O`, the Ki in assay [1] worked out at 470 nM; in assay [2], 51000 nM.
In the same order, the values of `CC[C@@H](C)[C@H](NC(=O)[C@H](S)[C@H](N)CCS(=O)(=O)O)C(=O)N[C@@H](CC(=O)O)C(N)=O` are 15 nM and 44000 nM.
Take `CC[C@@H](C)[C@H](NC(=O)[C@@H](S)[C@H](N)CCS(=O)(=O)O)C(=O)O`: the Ki is 1200 nM in assay [1] and more than 10000 nM in assay [2].
In the case of `CC[C@@H](C)[C@H](NC(=O)[C@H](S)[C@H](N)CCS(=O)(=O)O)C(=O)N[C@@H](CS(=O)(=O)O)C(=O)O`, the Ki was found to be 1210 nM in assay [3], 17 nM in assay [4] and 3.6 nM in assay [1].
As to `CC[C@@H](C)[C@H](NC(=O)[C@@H](S)[C@@H](N)CCS(=O)(=O)O)C(=O)N[C@@H](CC(=O)O)C(=O)O`, the Ki in assay [1] is 50 nM; in assay [2], more than 100000 nM.
As for `CC[C@H](C)[C@@H](NC(=O)[C@@H](S)[C@H](N)CCS(=O)(=O)O)C(=O)N[C@@H](CC(=O)O)C(=O)O`, the Ki in assay [1] is 292 nM; in assay [2], more than 100000 nM.
In the same order, the values of `CC[C@@H](C)[C@H](NC(=O)[C@@H](S)[C@H](N)CCS(=O)(=O)O)C(=O)N[C@H](CC(=O)O)C(=O)O` are 283 nM and more than 100000 nM.
With `CC[C@@H](C)[C@H](NC(=O)[C@@H](S)[C@H](N)CCS(=O)(=O)O)C(=O)N[C@@H](CC(=O)O)C(=O)O`, the Ki in assay [1] is 53 nM; in assay [2] it was more than 100000 nM.
In the case of `CC[C@@H](C)[C@H](NC(=O)[C@H](S)[C@H](N)CCS(=O)(=O)O)C(=O)O`, the Ki in assay [1] is 40 nM; in assay [2], more than 10000 nM.
For `CC[C@@H](C)[C@H](NC(=O)[C@@H](S)[C@H](N)CCP(=O)(O)O)C(=O)N[C@@H](CC(=O)O)C(=O)O`, the figures for the Ki in assay [1] and in assay [2] were 910 nM and more than 10000 nM, respectively.
On to `CC[C@@H](C)[C@H](NC(=O)[C@@H](S)[C@H](N)CCS(=O)(=O)O)C(=O)N1CCC(C(=O)O)[C@@H]1C(=O)O` (stereo partly drawn), for which the Ki in assay [1] was 240 nM.
On to `CC[C@@H](C)[C@H](NC(=O)[C@H](S)[C@H](N)CCS(=O)(=O)O)C(=O)N1CCC(C(=O)O)[C@@H]1C(=O)O` (stereo partly drawn), for which the results for the Ki in assay [3], in assay [4] and in assay [1] were 1090 nM, 520 nM and 3.83 nM, respectively.
Consider `N[C@H](CCS(=O)(=O)O)[C@H](S)C(=O)N[C@@H](Cc1ccc(O)cc1)C(=O)N[C@@H](CC(=O)O)C(=O)O`, for which the Ki in assay [1] is 27 nM; in assay [2], 48000 nM.
For `CC[C@@H](C)[C@H](NC(=O)[C@@H](S)[C@H](N)CCC(=O)O)C(=O)N[C@@H](CC(=O)O)C(=O)O`, the figures for the Ki in assay [1] and in assay [2] were 267 nM and more than 10000 nM, respectively.
Regarding `CC[C@@H](C)[C@H](NC(=O)[C@H](S)[C@@H](N)CCS(=O)(=O)O)C(=O)N[C@@H](CC(=O)O)C(=O)O`, the Ki in assay [1] was found to be 20 nM; in assay [2], 23000 nM.
Turning to `CC[C@@H](C)[C@H](NC(=O)[C@H](S)[C@@H](N)CCC(=O)O)C(=O)N[C@@H](CC(=O)O)C(=O)O`, the Ki in assay [1] turned out to be 13 nM; in assay [2], 120 nM.
For `N[C@H](CCS(=O)(=O)O)[C@@H](S)C(=O)N[C@@H](Cc1ccc(O)cc1)C(=O)N[C@@H](CCS(=O)(=O)O)C(=O)O`, the Ki in assay [3] worked out at 660 nM; in assay [4], 520 nM; in assay [1], 9.3 nM.
For `CC[C@@H](C)[C@H](NC(=O)[C@H](S)[C@H](N)CCS(=O)(=O)O)C(N)=O`, the inhibition constant (Ki) in assay [1] is 145 nM; in assay [2], more than 10000 nM.
As to `CC[C@@H](C)[C@H](NC(=O)[C@@H](S)[C@H](N)CCS(=O)(=O)O)C(=O)N1CCC(C(=O)O)[C@H]1C(=O)O` (stereo partly drawn), the Ki in assay [1] was 110 nM.
For the compound `N[C@H](CCS(=O)(=O)O)[C@H](S)C(=O)N[C@@H](Cc1ccc(O)cc1)C(=O)N[C@@H](CCS(=O)(=O)O)C(=O)O`, in assay [1], the Ki is 73.3 nM.
For `CC[C@@H](C)[C@H](NC(=O)[C@H](S)[C@H](N)CCS(=O)(=O)O)C(=O)N[C@H](CC(=O)O)C(=O)O`, the Ki in assay [1] is 5.36 nM; in assay [2] it was more than 100000 nM.
`CC[C@H](C)[C@@H](NC(=O)[C@H](S)[C@H](N)CCS(=O)(=O)O)C(=O)N[C@@H](CC(=O)O)C(=O)O`: the Ki was 14.7 nM in assay [1] and more than 100000 nM in assay [2].
For the compound `CC[C@@H](C)[C@H](NC(=O)[C@@H](S)[C@H](N)CCS(=O)(=O)O)C(=O)N[C@@H](CS(=O)(=O)O)C(=O)O`, the Ki in assay [1] was determined as 83.3 nM.
